Patent US10875876B2, “Cyclized sulfamoylarylamide derivatives and the use thereof as medicaments for the treatment of hepatitis B” (priority 2015, dated 2020)

Columns and labels:
HBV = test: anti HBV activity, HepG2.117 cell line, intracellular HBV DNA by realtime PCR; type: cell-based; settings: HepG2.117 cell line (Tet-off), 3 days of treatment, intracellular HBV DNA quantified by realtime PCR; read-out: HBV-AVE-HepG2.117 EC50
Outline: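 Readout was intracellular HBV DNA by real-time PCR (HBV-specific primers and probe) after 3 days of compound exposure. Serial dilutions were tested in duplicate on HepG2.117 cells, a stable inducible HBV producer in which replication is switched on when doxycycline is absent.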

HepG2 cells = test: Cytotoxicity in HepG2 cells, Resazurin assay; settings: read-out: TOX-HepG2-4 d CC50; HepG2 cells incubated for 4 days, viability by Resazurin assay

Row | Structure (SMILES) | EC50 (HBV) [nM] | CC50 (HepG2 cells) [nM]
1 | Cn1ccc(C2(C)COc3c(cn(C)c3C(=O)Nc3ccc(F)c(F)c3)S(=O)(=O)N2)n1 (single isomer, unassigned) [Compound 192b, N-(3,4-difluorophenyl)-3,7-dimethyl-3-(1-methylpyrazol-3-yl)-1,1-dioxo-2,4-dihydropyrrolo[3,4-b][1,4,5]oxathiazepine-6-carboxamide] | 24 | > 25000
2 | Cn1cc2c(c1C(=O)Nc1ccc(F)c(F)c1)OCC(C)(Cc1cccnc1)NS2(=O)=O (single isomer, unassigned) [Compound 199b, N-(3,4-difluorophenyl)-3,7-dimethyl-1,1-dioxo-3-(3-pyridylmethyl)-2,4-dihydropyrrolo[3,4-b][1,4,5]oxathiazepine-6-carboxamide] | 8 | > 25000
3 | Cn1cc2c(c1C(=O)Nc1ccc(F)c(F)c1)OCC(C)(CO)NS2(=O)=O (single isomer, unassigned) [Compound 203b, N-(3,4-difluorophenyl)-3-(hydroxymethyl)-3,7-dimethyl-1,1-dioxo-2,4-dihydropyrrolo[3,4-b][1,4,5]oxathiazepine-6-carboxamide] | 59 | > 25000
4 | Cn1cc2c(c1C(=O)Nc1ccnc(Cl)c1)OCC(C)(CO)NS2(=O)=O (single isomer, unassigned) [Compound 204b, N-(2-chloro-4-pyridyl)-3-(hydroxymethyl)-3,7-dimethyl-1,1-dioxo-2,4-dihydropyrrolo[3,4-b][1,4,5]oxathiazepine-6-carboxamide] | > 125 | > 25000
5 | Cc1cc(NC(=O)c2c3c(cn2C)S(=O)(=O)N[C@@H](C(O)C2CC2)CO3)ccc1F (single isomer, unassigned) [Compound 206b, 3-[cyclopropyl(hydroxy)methyl]-N-(4-fluoro-3-methyl-phenyl)-7-methyl-1,1-dioxo-3,4-dihydro-2H-pyrrolo[3,4-b][1,4,5]oxathiazepine-6-carboxamide] | 12 | > 25000
6 | Cn1cc2c(c1C(=O)Nc1ccc(F)c(Cl)c1)OC[C@H](C(O)C1CC1)NS2(=O)=O (single isomer, unassigned) [Compound 207b, N-(3-chloro-4-fluoro-phenyl)-3-[cyclopropyl(hydroxy)methyl]-7-methyl-1,1-dioxo-3,4-dihydro-2H-pyrrolo[3,4-b][1,4,5]oxathiazepine-6-carboxamide] | 5 | > 25000
7 | Cn1cc2c(c1C(=O)Nc1cc(F)c(F)c(F)c1)OC[C@H](C(O)C1CC1)NS2(=O)=O (single isomer, unassigned) [Compound 208b, 3-[cyclopropyl(hydroxy)methyl]-7-methyl-1,1-dioxo-N-(3,4,5-trifluorophenyl)-3,4-dihydro-2H-pyrrolo[3,4-b][1,4,5]oxathiazepine-6-carboxamide] | 11 | > 25000
8 | Cc1cc(CC2(C)COc3c(cn(C)c3C(=O)Nc3ccnc(C(F)F)c3)S(=O)(=O)N2)no1 (single isomer, unassigned) [Compound 209b, N-[2-(difluoromethyl)-4-pyridyl]-3,7-dimethyl-3-[(5-methylisoxazol-3-yl)methyl]-1,1-dioxo-2,4-dihydropyrrolo[3,4-b][1,4,5]oxathiazepine-6-carboxamide] | 18 | > 25000
9 | Cn1cc2c(c1C(=O)Nc1ccc(F)c(C#N)c1)OCC(C)(CO)NS2(=O)=O (single isomer, unassigned) [Compound 210b, N-(3-cyano-4-fluoro-phenyl)-3-(hydroxymethyl)-3,7-dimethyl-1,1-dioxo-2,4-dihydropyrrolo[3,4-b][1,4,5]oxathiazepine-6-carboxamide] | 34 | > 25000
10 | Cc1cc(CC2(C)COc3c(cn(C)c3C(=O)Nc3ccnc(Cl)c3)S(=O)(=O)N2)no1 (single isomer, unassigned) [Compound 213b, N-(2-chloro-4-pyridyl)-3,7-dimethyl-3-[(5-methylisoxazol-3-yl)methyl]-1,1-dioxo-2,4-dihydropyrrolo[3,4-b][1,4,5]oxathiazepine-6-carboxamide] | 16 | > 25000
11 | Cn1cc2c(c1C(=O)Nc1cc(F)c(F)c(F)c1)OCC(C)(CO)NS2(=O)=O (single isomer, unassigned) [Compound 214b, 3-(hydroxymethyl)-3,7-dimethyl-1,1-dioxo-N-(3,4,5-trifluorophenyl)-2,4-dihydropyrrolo[3,4-b][1,4,5]oxathiazepine-6-carboxamide] | 22 | > 25000
12 | Cn1cc2c(c1C(=O)Nc1ccnc(C(F)F)c1)OCC(C)(CO)NS2(=O)=O (single isomer, unassigned) [Compound 215b, N-[2-(difluoromethyl)-4-pyridyl]-3-(hydroxymethyl)-3,7-dimethyl-1,1-dioxo-2,4-dihydropyrrolo[3,4-b][1,4,5]oxathiazepine-6-carboxamide] | > 125 | > 25000
13 | Cn1ccc(CC2(C)COc3c(cn(C)c3C(=O)Nc3ccnc(C(F)F)c3)S(=O)(=O)N2)n1 (single isomer, unassigned) [Compound 217b, N-[2-(difluoromethyl)-4-pyridyl]-3,7-dimethyl-3-[(1-methylpyrazol-3-yl)methyl]-1,1-dioxo-2,4-dihydropyrrolo[3,4-b][1,4,5]oxathiazepine-6-carboxamide] | 100 | > 25000
14 | CC(NCC(F)(F)F)C1CCc2c(cn(C)c2C(=O)Nc2cc(F)c(F)c(F)c2)S(=O)(=O)N1 (single isomer, unassigned) [Compound 218b, 7-methyl-1,1-dioxo-3-[1-(2,2,2-trifluoroethylamino)ethyl]-N-(3,4,5-trifluorophenyl)-2,3,4,5-tetrahydropyrrolo[3,4-f]thiazepine-6-carboxamide] | 79 | > 25000
15 | CC(NCC(F)(F)F)C1CCc2c(cn(C)c2C(=O)Nc2cc(F)c(F)c(F)c2)S(=O)(=O)N1 (single isomer, unassigned) [Compound 218d, 7-methyl-1,1-dioxo-3-[1-(2,2,2-trifluoroethylamino)ethyl]-N-(3,4,5-trifluorophenyl)-2,3,4,5-tetrahydropyrrolo[3,4-f]thiazepine-6-carboxamide] | 21 | > 25000
16 | Cc1cc(CC2(C)COc3c(cn(C)c3C(=O)Nc3ccc(F)c(C#N)c3)S(=O)(=O)N2)no1 (single isomer, unassigned) [Compound 220b, N-(3-cyano-4-fluoro-phenyl)-3,7-dimethyl-3-[(5-methylisoxazol-3-yl)methyl]-1,1-dioxo-2,4-dihydropyrrolo[3,4-b][1,4,5]oxathiazepine-6-carboxamide] | 34 | > 25000
17 | Cn1cc2c(c1C(=O)Nc1ccc(F)c(F)c1)OC[C@H](C(O)C1CC1)NS2(=O)=O (stereo partly drawn) [Compound 105b, (3R)-3-[cyclopropyl(hydroxy)methyl]-N-(3,4-difluorophenyl)-7-methyl-1,1-dioxo-3,4-dihydro-2H-pyrrolo[3,4-b][1,4,5]oxathiazepine-6-carboxamide] | 11 | > 25000
18 | Cn1cc2c(c1C(=O)Nc1ccc(F)c(C(F)F)c1)OC[C@H](C(O)C1CC1)NS2(=O)=O (stereo partly drawn) [Compound 115b, (3R)-3-[cyclopropyl(hydroxy)methyl]-N-[3-(difluoromethyl)-4-fluoro-phenyl]-7-methyl-1,1-dioxo-3,4-dihydro-2H-pyrrolo[3,4-b][1,4,5]oxathiazepine-6-carboxamide] | 7 | > 25000
19 | CC(C)C(O)C1COc2c(cn(C)c2C(=O)Nc2ccc(F)c(C#N)c2)S(=O)(=O)N1 (stereo not drawn) [Compound 119b, N-(3-cyano-4-fluoro-phenyl)-3-(1-hydroxy-2-methyl-propyl)-7-methyl-1,1-dioxo-3,4-dihydro-2H-pyrrolo[3,4-b][1,4,5]oxathiazepine-6-carboxamide] | 6 | > 25000
20 | Cn1cc2c(c1C(=O)Nc1ccc(F)c(C#N)c1)OC[C@H](C(O)C1CC1)NS2(=O)=O (stereo partly drawn) [Compound 120b, (3R)—N-(3-cyano-4-fluoro-phenyl)-3-[cyclopropyl(hydroxy)methyl]-7-methyl-1,1-dioxo-3,4-dihydro-2H-pyrrolo[3,4-b][1,4,5]oxathiazepine-6-carboxamide] | 11 | > 25000
21 | CCC(O)[C@H]1COc2c(cn(C)c2C(=O)Nc2ccc(F)c(C#N)c2)S(=O)(=O)N1 (stereo partly drawn) [Compound 122b, (3R)—N-(3-cyano-4-fluoro-phenyl)-3-(1-hydroxypropyl)-7-methyl-1,1-dioxo-3,4-dihydro-2H-pyrrolo[3,4-b][1,4,5]oxathiazepine-6-carboxamide] | 9 | > 25000
22 | CCC(O)[C@H]1COc2c(cn(C)c2C(=O)Nc2ccc(F)c(C(F)F)c2)S(=O)(=O)N1 (stereo partly drawn) [Compound 124b, (3R)—N-[3-(difluoromethyl)-4-fluoro-phenyl]-3-(1-hydroxypropyl)-7-methyl-1,1-dioxo-3,4-dihydro-2H-pyrrolo[3,4-b][1,4,5]oxathiazepine-6-carboxamide] | 4 | > 25000
23 | CCC(O)[C@H]1COc2c(cn(C)c2C(=O)Nc2ccc(F)c(F)c2)S(=O)(=O)N1 (stereo partly drawn) [Compound 130b, (3R)—N-(3,4-difluorophenyl)-3-(1-hydroxypropyl)-7-methyl-1,1-dioxo-3,4-dihydro-2H-pyrrolo[3,4-b][1,4,5]oxathiazepine-6-carboxamide] | 12 | > 25000
24 | C[C@@H]1NS(=O)(=O)c2cn(C)c(C(=O)Nc3ccc(F)c(F)c3)c2O[C@@H]1C [compound 228] | > 500 | > 25000
25 | C[C@@H]1Oc2c(cn(C)c2C(=O)Nc2ccc(F)c(C#N)c2)S(=O)(=O)N[C@@H]1CO [compound 235] | > 500 | > 25000
26 | C[C@@H]1Oc2c(cn(C)c2C(=O)Nc2ccnc(Br)c2)S(=O)(=O)N[C@@H]1CO [compound 236] | 340 | > 25000
27 | Cn1cc2c(c1C(=O)Nc1ccc(F)c(F)c1)O[C@@H](C(F)(F)F)[C@H](CO)NS2(=O)=O [compound 244] | > 500 | > 25000
